{"source": "patent US4233217A", "about": "“Substituted 1,2,4,5-tetrahydro-3H, 3 benzazepines” (priority 1979, dated 1980)", "key": {"[1]": {"experiment": "I.P. symptomatology: highest tolerated dose and median lethal dose (Table IV)", "type": "in vivo"}, "in vivo": {"experiment": "in vivo", "conditions": "po"}, "[2]": {"experiment": "Mouse tail stimulation (MTS) (Table IV)", "type": "in vivo", "design": "unit not given here", "conditions": "S.C."}, "Morphine Analgesia": {"system": "Morphine Analgesia", "type": "in vivo, rat", "conditions": "for narcotic antagonist potency relative to pentazocine: compared with pentazocine, Table II"}, "[3]": {"experiment": "Analgesic activity summarized over hot plate and writhing methods (Table I)", "conditions": "for analgesic activity, ranking among tested compounds / separation between effective dose and toxic or lethal doses: Table I; for separation between effective dose and toxic or lethal doses: therapeutic index"}, "[4]": {"experiment": "Narcotic antagonism (Table IV)", "type": "in vivo", "conditions": "I.P."}, "[5]": {"experiment": "Local anesthetic sciatic block (Table IV)", "type": "in vivo", "conditions": "1%"}, "[6]": {"experiment": "Writhing analgesia (Table I)", "type": "in vivo", "conditions": "oral; vs pentazocine"}}, "note": "Where a name gives a salt, the structure may show the parent alone.", "data": [{"smiles": "Oc1ccc2c(c1)CCN(C[C@H]1C[C@@H]1c1ccccc1)CC2", "note": "(relative stereo) [Example 30, 7-Hydroxy-3(trans-2-phenylcyclopropylmethyl)-1,2,4,5-tetrahydro-3H,3-benzazepine]", "values": [{"measurement": "LD50", "setting": "[1]; in vivo, ip, I.P.", "result": "> 1000", "unit": "mg/kg"}]}, {"smiles": "CC1Cc2ccccc2CCN1", "note": "(single isomer, unassigned; (+)) [Example 49, (+)-2-Methyl-1,2,4,5-tetrahydro-3H,3-benzazepine hydrochloride]", "values": [{"measurement": "LD50 (median lethal dose)", "setting": "[1]; I.P., hydrochloride", "result": 200, "unit": "mg/kg"}]}, {"smiles": "CC1Cc2ccccc2CCN1", "note": "(single isomer, unassigned; (-)) [Example 48, (-)-2-Methyl-1,2,4,5-tetrahydro-3H,3-benzazepine]", "values": [{"measurement": "LD50 (median lethal dose)", "setting": "[1]; I.P.", "result": 60, "unit": "mg/kg"}]}, {"smiles": "CC1Cc2ccccc2CCN1C", "note": "(single isomer, unassigned; (-)) [Example 54, (-)-2,3-Dimethyl-1,2,4,5-tetrahydro-3H,3-benzazepine hydrochloride]", "values": [{"measurement": "LD50 (median lethal dose)", "setting": "[1]; I.P., hydrochloride", "result": 60, "unit": "mg/kg"}]}, {"smiles": "COc1ccc2c3c1O[C@H]1[C@@H](O)C=C[C@H]4[C@@H](C2)N(C)CC[C@@]341", "note": "[Codeine]", "values": [{"measurement": "LD50", "setting": "in vivo", "result": 540, "unit": "mg/kg"}]}, {"smiles": "COc1ccc2c(c1)CCNCC2", "note": "[Example 1, 7-Methoxy-1,2,4,5-tetrahydro-3H,3-benzazepine]", "values": [{"measurement": "MTS (mouse tail stimulation)", "setting": "[2]", "result": "> 3"}]}, {"smiles": "CC(C)=CCN1CCc2ccc(O)cc2CC1", "note": "[Example 4, 3-(3,3-Dimethylallyl)-7-hydroxy-1,2,4,5-tetrahydro-3H,3-benzazepine]", "values": [{"measurement": "narcotic antagonist potency relative to pentazocine", "setting": "Morphine Analgesia", "result": "more potent antagonist than pentazocine"}, {"measurement": "MTS (mouse tail stimulation)", "setting": "[2]", "result": "> 56"}]}, {"smiles": "CC(=O)Oc1ccc2c(c1)CCN(CC=C(C)C)CC2", "note": "[Example 5, 7-Acetoxy-3-(3,3-dimethylallyl)-1,2,4,5-tetrahydro-3H,3-benzazepine hydrochloride]", "values": [{"measurement": "MTS (mouse tail stimulation)", "setting": "[2]", "result": "> 30"}]}, {"smiles": "C=CCN1CCc2ccc(OC)cc2CC1", "note": "[Example 14, 3-Allyl-7-methoxy-1,2,4,5-tetrahydro-3H,3-benzazepine]", "values": [{"measurement": "narcotic antagonist potency relative to pentazocine", "setting": "Morphine Analgesia", "result": "about equipotent to pentazocine"}]}, {"smiles": "COc1ccc2c(c1)CCN(C)CC2", "note": "[Example 18, 7-Methoxy-3-methyl-1,2,4,5-tetrahydro-3H,3-benzazepine]", "values": [{"measurement": "oral analgesic activity", "setting": "[3]", "result": "active by the oral route"}]}, {"smiles": "COc1ccc2c(c1)CCN(CCc1ccccc1)CC2", "note": "[Example 24, 7-Methoxy-3-phenethyl-1,2,4,5-tetrahydro-3H,3-benzazepine]", "values": [{"measurement": "narcotic antagonist potency relative to pentazocine", "setting": "Morphine Analgesia", "result": "about equipotent to pentazocine"}, {"measurement": "MTD", "setting": "[1]; in vivo, ip, I.P. symptomatology, read-out: HTD (highest tolerated dose)", "result": 30, "unit": "mg/kg"}, {"measurement": "MTS (mouse tail stimulation)", "setting": "[2]", "result": 5}, {"measurement": "Narcotic Antagonism", "setting": "[4]", "result": "Positive"}, {"measurement": "analgesic activity, ranking among tested compounds", "setting": "[3]", "result": "most active compounds"}, {"measurement": "separation between effective dose and toxic or lethal doses", "setting": "[3]", "result": "greatest separation between effective dose and toxic or lethal doses"}]}, {"smiles": "Oc1ccc2c(c1)CCN(CCc1ccccc1)CC2", "note": "[Example 25, 7-Hydroxy-3-phenethyl-1,2,4,5-tetrahydro-3H,3-benzazepine]", "values": [{"measurement": "HNSD (Highest Non Symptomatic Dose)", "setting": "IP (Intraperitoneal)", "result": 55, "unit": "mg/kg"}]}, {"smiles": "COc1ccc2c(c1)CCN(CC=Cc1ccccc1)CC2", "note": "[Example 28, 7-Methoxy-3-(3-phenylallyl)-1,2,4,5-tetrahydro-3H,3-benzazepine]", "values": [{"measurement": "narcotic antagonist potency relative to pentazocine", "setting": "Morphine Analgesia", "result": "about equipotent to pentazocine"}, {"measurement": "MTS (mouse tail stimulation)", "setting": "[2]", "result": 10}, {"measurement": "oral analgesic activity", "setting": "[3]", "result": "active by the oral route"}]}, {"smiles": "COc1ccc2c(c1)CCN(CCN1CCN(c3ccccc3)CC1)CC2", "note": "[Example 31, 7-Methoxy-3-[2-(4-phenyl-1-piperazinyl)ethyl]-1,2,4,5-tetrahydro-3H,3-benzazepine]", "values": [{"measurement": "MTS (mouse tail stimulation)", "setting": "[2]", "result": 20}, {"measurement": "analgesic activity, ranking among tested compounds", "setting": "[3]", "result": "most active compounds"}, {"measurement": "separation between effective dose and toxic or lethal doses", "setting": "[3]", "result": "greatest separation between effective dose and toxic or lethal doses"}]}, {"smiles": "CC(C)=CCN1CCc2ccc(O)cc2CC1C", "note": "(stereo not shown) [Example 34, 3-(3,3-Dimethylallyl)-8-hydroxy-2-methyl-1,2,4,5-tetrahydro-3H,3-benzazepine hydrochloride]", "values": [{"measurement": "MTS (mouse tail stimulation)", "setting": "[2]", "result": "> 40"}]}, {"smiles": "COc1ccc2c(c1)CC(C)N(CCc1ccccc1)CC2", "note": "(stereo not shown) [Example 36, 8-Methoxy-2-methyl-3-phenethyl-1,2,4,5-tetrahydro-3H,3-benzazepine hydrochloride]", "values": [{"measurement": "MTS (mouse tail stimulation)", "setting": "[2]", "result": 10}, {"measurement": "Local Anesthetic Sciatic Block", "setting": "[5]", "result": "Insoluable"}]}, {"smiles": "c1ccc2c(c1)CCN(CC1CC1)CC2", "note": "[Example 37, 3-Cyclopropylmethyl-1,2,4,5-tetrahydro-3H,3-benzazepine hydrochloride]", "values": [{"measurement": "writhing activity relative to pentazocine", "setting": "[6]", "result": "approximately twice as active as pentazocine"}, {"measurement": "MTS (mouse tail stimulation)", "setting": "[2]", "result": 10}, {"measurement": "oral analgesic activity", "setting": "[3]", "result": "active by the oral route"}]}, {"smiles": "C=CCN1CCc2ccc(OC)cc2CC1C", "note": "(stereo not shown) [Example 38, 3-Allyl-8-methoxy-2-methyl-1,2,4,5-tetrahydro-3H,3-benzazepine hydrochloride]", "values": [{"measurement": "MTS (mouse tail stimulation)", "setting": "[2]", "result": "> 10"}]}, {"smiles": "CC1Cc2cc(O)ccc2CCN1CC1CC1", "note": "(stereo not shown) [Example 41, 3-Cyclopropylmethyl-8-hydroxy-2-methyl-1,2,4,5-tetrahydro-3H,3-benzezepine hydrochloride]", "values": [{"measurement": "MTS (mouse tail stimulation)", "setting": "[2]", "result": "> 30"}]}, {"smiles": "C=CCN1CC[C@]23c4c5ccc(O)c4O[C@H]2[C@@H](O)C=C[C@H]3[C@H]1C5", "note": "[Nalorphine, reference compound]", "values": [{"measurement": "Antagonism of Morphine Analgesia, times more active than compounds listed above", "setting": "Morphine Analgesia; rat, in vivo, sc", "result": "20-100"}]}, {"smiles": "CC(C)=CCN1CCC2(C)c3cc(O)ccc3CC1C2C", "note": "(stereo not shown) [Pentazocine, reference compound]", "values": [{"measurement": "LDSO", "setting": "IP", "result": "> 500", "unit": "mg/kg"}]}]}
